Numbered stars: 1 amine (or outer) side, 2 acyl side, 3 side chain; on linkers, the order of the positions; unused ones are H or OH. Peptide text beside a SMILES is read from it. * marks the point of attachment. X1 = Brc1ccc2c(c1)-c1cc(N*)ccc1C2; Suc = O=C(CCC(=O)[*:2])[*:1]
Tests used:
Format in all cases: in vivo
Myzus persicae [1] = experiment: Feeding of aphids with peptides in artificial diet; life span and fecundity; conditions: M. persicae on artificial diet containing the peptide; mean ± SE
Method: A standard artificial diet for M. persicae was produced as described in Van Emden (2009) and provided the basal diet to which neuropeptide analogues were added for screening purposes. Neuropeptide analogues were diluted individually in the artificial diet to a pre-determined recommended concentration as follows: 1895 (3.5×10^-5 M) and 2019 (2.0×10^-5 M). Feeding apparatus were constructed using a set-up developed by […] et al (2009). For this, a piece of Parafilm was stretched over a Plexiglas ring (h=4 cm, Ø=3 cm) and 100 μl of the artificial diet containing the desired neuropeptide analogue was pipette onto the Parafilm membrane. A second piece of Parafilm, stretched to 4 times the original thickness, was stretched over the original layer, sandwiching the artificial diet between two layers of Parafilm. A strip of Parafilm was wrapped around the circumference of the Plexiglas ring, sealing in the diet. A plastic ring (h=1.2 cm, Ø=3.4 cm) was subsequently placed over the Parafilm layer, creating a walled chamber in which to house test aphids in contact with the Parafilm layer containing the artificial diet. Finally, a small Petri dish (h=1 cm, Ø=3.6 cm), modified for ventilation with net cloth, was placed on top of each feeding apparatus to prevent aphid escape. To obtain aphids for use in experiments, reproducing anholocyclic adults were placed on individual excised leaves of Chinese cabbage at densities of 5 adults per leaf and allowed to reproduce for 24 h. The stem of each excised leaf was held within a 0.5 mL Eppendorf tube containing water via a punctured hole in the Eppendorf lid, and placed individually within a microcage (L=4 cm, Ø=9.5 cm). Following 24 h, adults were removed and resultant first instar nymphs (<1 day old and synchronised in age to within 24 h) retained. Nymphs were allowed to develop on the Chinese cabbage for 5 days. On day 5, (3rd instar) nymphs were transferred onto the artificial diet containing a neuropeptide analogue at densities of 1 per feeding chamber and monitored daily until death. Aphids were transferred to fresh artificial diet (containing neuropeptide analogue) every 5 days. Life history traits recorded include age at first reproduction, number of nymphs produced per 24 h period, and lifespan. From these parameters, lifetime fecundity and daily fecundity were calculated. Control groups were set up involving aphids reared on the host plant, an artificial diet without a neuropeptide analogue, and an artificial diet containing the native CAPA neuropeptide.

Myzus persicae [2] = experiment: Topical application by spraying, air brush; conditions: 750 μl, 1×10^−5M of each peptide in Tween 24 0.1%, counted 48 hours post spray
Method: (§1) Aphids were exposed to test peptides in the absence of additional external stress conditions.
(§2) Brassica rapa (Chinese cabbage; Wong Bok) were infested with 30 adult Myzus persicae aphids per plant. Aphids were left at least 2 hours to settle and begin feeding from the host plant.
Spraying took place inside an externally vented fume cupboard. […] To ensure spray tracking, all sprayed solutions had amaranth dye added, allowing the full surface of the plant to be evenly coated with the aerosolised compound.
The plants to be sprayed were placed inside a plastic disposal bag, inside the fume cupboard. This was used to control the area exposed to the aerosolised liquid, to avoid extensive spraying and cleaning inside the fume cupboard. The bag was further lined with absorbent paper towel to again help contain and control spray.
Each experiment had three controls:
i) no vehicle or peptide air spray only, negative control to assess effect of spraying on aphid ability to remain attached to the plant; ii) vehicle spray only (Tween 24 0.1%); and iii) Imidacloprid positive control (28.3 μM).
Imidacloprid was always applied last to prevent any possibility of stray pesticide being left inside the disposal bag and contaminating a test peptide applied plant.
Spray volumes for all solutions for this experiment 750 μl.
A clean air brush (ABEST AC06k30) was loaded with 750 μl of peptide solution diluted in […] 0.1% vehicle. For this experiment there were three test conditions: 1895 alone (1×10^−5M); 2129 alone (1×10^−5M); and a simultaneous co-application of 1895+2129 together (1×10^−5M of each peptide). During application, the air brush was held within the plastic bag and the compressor turned on. The air brush was then gently sprayed back and forth across the plant. […]
Post peptide application, each condition was placed into its own individual Bugdorm (Watkins and Doncaster, 44545), to prevent repulsed or displaced aphids moving from one condition to another. Numbers of alive and dead aphids on the plant were counted 48 hours post spray, and the presence of any fresh nymphs noted. […]

Myzus persicae [3] = experiment: Topical application by spraying, Potter Spray Tower; conditions: 3000 μl, 1×10^−5M of each peptide in ATPlus 0.1%, counted 48 hours post spray
Method: as §1, §2
Spraying took place inside a designated spray room. To ensure spray tracking, all sprayed solutions had amaranth dye added.
Potter Spray Tower (Burkard Manufacturing) was ‘primed’ by spraying 1000 μl of liquid coating the inside of the tower. Two controls were used:
i) vehicle spray only (Croda ATPlus UEP 100 LQ-(CQ) 0.1% v/v); and ii) Imidacloprid positive control (28.3 μM).
Imidacloprid was always applied last and via a second, separate, Potter Tower, to prevent any possibility of stray pesticide being left inside the tower and contaminating a test peptide-applied plant.
Spray volumes for all solutions were 3000 μl. The 6.9 mm spray head was loaded with 3000 μl of a 1×10^−5M peptide solution diluted in ATPlus 0.1%. After spraying was completed the plant was allowed to rest on the spray platform for 30 seconds to allow settling of the sprayed chemical.
For this experiment there were three test conditions: 1895 alone (1×10^−5M); 2129 alone (1×10^−5M); and a simultaneous co-application of 1895+2129 together (1×10^−5M of each peptide).
Post peptide application, each condition was placed into its own individual Bugdorm (Watkins and Doncaster, 44545), to prevent repulsed or displaced aphids moving from one condition to another. Numbers of alive and dead aphids on the plant were counted 48 hours post spray, and the presence of any fresh nymphs noted. Plants were watered prior to spraying but not afterwards to eliminate the possibility of drowning any aphids present or washing off the sprayed liquid.
Post spraying, the spray head was filled with over 3000 μl of 70% ethanol and sprayed until empty. The spray head was carefully removed and rinsed with 70% ethanol as some amaranth dye was observed on the spray head. […]

CC[C@H](C)[C@H](NC(=O)[C@H](CCCNC(=N)N)NC(=O)[C@@H]1CCCN1C(=O)[C@@H](NC(=O)[C@H](C)NC(=O)CCC(=O)Nc1ccc2c(c1)-c1cc(Br)ccc1C2)[C@@H](C)O)C(N)=O [compound 2129, 2Abf-Suc-ATPRI-NH2] ({X1-Suc}-ATPRI-NH2)
Age at 1st reproduction (Myzus persicae [1]): 12.4 ± 0.7 days
Ave. daily fecundity (Myzus persicae [1]): 1.2±0.1 nymphs
Days as reproducing adult (Myzus persicae [1]): 7.17 ± 1.5
Life span (Myzus persicae [1]): 21.0 ± 2.3 days
Lifetime fecundity (Myzus persicae [1]): 8.8 ± 2.0 nymphs
% Lethality (Myzus persicae [2]): 30%
% Lethality (Myzus persicae [3]): 32%

2Abf-Suc-FGPRL-NH2 [compound 1895]
Age at 1st reproduction (Myzus persicae [1]): 11.5 ± 0.5 days
Ave. daily fecundity (Myzus persicae [1]): 1.1±0.1 nymphs
Days as reproducing adult (Myzus persicae [1]): 5.8 ± 1.8
Life span (Myzus persicae [1]): 19.8 ± 2.5 days
Lifetime fecundity (Myzus persicae [1]): 6.4±2.0 nymphs
% Lethality (Myzus persicae [2]): 27%
% Lethality (Myzus persicae [3]): 34%

Source: patent US20220039395A1, “INSECT CONTROL AGENTS” (priority 2018, published 2022)
